According to patent US9926297B2, “Bicyclic AZA compounds as muscarinic M1 receptor and/or M4 receptor agonists” (Heptares Therapeutics Limited, priority 2014, dated 2018):

Tests used:
[1] = biological target: T1, human muscarinic M1 receptor (Homo sapiens, UniProt P11229); assay: Alphascreen Surefire phospho-ERK1/2 functional assay, M1; format: cell-based; details: for EC50: CHO cells stably expressing human M1, phospho-ERK1/2, * = variable results, read-out: pEC50 M1 (converted); for Emax: CHO, read-out: % Emax cf. ACh, M1, CHO cells stably expressing human M1, relative to ACh
T1 sequence (P11229 1-460): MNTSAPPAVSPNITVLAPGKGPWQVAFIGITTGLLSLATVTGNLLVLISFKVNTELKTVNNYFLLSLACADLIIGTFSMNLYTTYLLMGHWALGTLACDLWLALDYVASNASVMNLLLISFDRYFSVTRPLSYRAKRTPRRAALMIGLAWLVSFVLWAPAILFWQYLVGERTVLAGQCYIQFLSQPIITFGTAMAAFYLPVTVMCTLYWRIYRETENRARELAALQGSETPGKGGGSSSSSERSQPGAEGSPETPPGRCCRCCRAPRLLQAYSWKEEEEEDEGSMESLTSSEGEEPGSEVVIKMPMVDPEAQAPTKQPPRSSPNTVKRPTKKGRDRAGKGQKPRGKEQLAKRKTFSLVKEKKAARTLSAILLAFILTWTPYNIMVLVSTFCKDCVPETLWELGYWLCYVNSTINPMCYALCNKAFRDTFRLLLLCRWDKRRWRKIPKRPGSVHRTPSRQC

[2] = biological target: T2, human muscarinic M4 receptor (Homo sapiens, UniProt P08173); assay: Alphascreen Surefire phospho-ERK1/2 functional assay, M4; format: cell-based; details: for EC50: CHO cells stably expressing human M4, phospho-ERK1/2, * = variable results, read-out: pEC50 M4 (converted); for Emax: CHO, read-out: % Emax cf. ACh, M4, CHO cells stably expressing human M4, relative to ACh
T2 construct: expressed in transfected cells
T2 sequence (P08173 1-479): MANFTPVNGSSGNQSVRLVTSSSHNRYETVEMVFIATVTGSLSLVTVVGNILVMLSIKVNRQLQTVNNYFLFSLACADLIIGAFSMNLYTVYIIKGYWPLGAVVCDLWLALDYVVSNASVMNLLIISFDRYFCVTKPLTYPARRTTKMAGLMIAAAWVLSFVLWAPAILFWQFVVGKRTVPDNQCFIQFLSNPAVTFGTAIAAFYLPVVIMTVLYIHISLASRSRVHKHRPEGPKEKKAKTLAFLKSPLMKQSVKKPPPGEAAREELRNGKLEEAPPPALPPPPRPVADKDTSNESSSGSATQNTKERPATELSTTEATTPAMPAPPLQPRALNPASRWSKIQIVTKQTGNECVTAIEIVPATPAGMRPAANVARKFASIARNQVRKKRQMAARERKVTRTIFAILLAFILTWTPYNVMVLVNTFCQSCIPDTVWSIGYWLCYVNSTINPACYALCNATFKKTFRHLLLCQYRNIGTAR

[3] = biological target: T3, human muscarinic M2 receptor (Homo sapiens, UniProt P08172); assay: Alphascreen Surefire phospho-ERK1/2 functional assay, M2; details: for Emax: CHO, read-out: % Emax cf. ACh, M2, CHO cells stably expressing human M2, relative to ACh
T3 sequence (P08172 1-466): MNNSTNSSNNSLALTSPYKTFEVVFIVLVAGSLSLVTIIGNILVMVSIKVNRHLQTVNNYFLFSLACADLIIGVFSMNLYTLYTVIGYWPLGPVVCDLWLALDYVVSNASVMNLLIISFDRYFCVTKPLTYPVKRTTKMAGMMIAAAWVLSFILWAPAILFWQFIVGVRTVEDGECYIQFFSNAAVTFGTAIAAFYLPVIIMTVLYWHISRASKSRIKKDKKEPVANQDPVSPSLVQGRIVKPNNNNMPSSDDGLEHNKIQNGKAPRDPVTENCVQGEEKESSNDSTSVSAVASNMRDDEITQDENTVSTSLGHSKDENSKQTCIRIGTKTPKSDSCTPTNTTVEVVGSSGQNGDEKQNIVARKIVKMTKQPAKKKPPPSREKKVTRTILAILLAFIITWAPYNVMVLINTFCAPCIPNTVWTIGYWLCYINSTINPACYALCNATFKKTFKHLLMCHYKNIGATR

[4] = biological target: human muscarinic M3 receptor (Homo sapiens, UniProt P20309); assay: Alphascreen Surefire phospho-ERK1/2 functional assay, M3; details: for Emax: CHO, read-out: % Emax cf. ACh, M3, CHO cells stably expressing human M3, relative to ACh; for EC50: pEC50 M3, CHO cells stably expressing human M3, phospho-ERK1/2, * = variable results
Chain of human muscarinic M3 receptor (P20309 whole entry): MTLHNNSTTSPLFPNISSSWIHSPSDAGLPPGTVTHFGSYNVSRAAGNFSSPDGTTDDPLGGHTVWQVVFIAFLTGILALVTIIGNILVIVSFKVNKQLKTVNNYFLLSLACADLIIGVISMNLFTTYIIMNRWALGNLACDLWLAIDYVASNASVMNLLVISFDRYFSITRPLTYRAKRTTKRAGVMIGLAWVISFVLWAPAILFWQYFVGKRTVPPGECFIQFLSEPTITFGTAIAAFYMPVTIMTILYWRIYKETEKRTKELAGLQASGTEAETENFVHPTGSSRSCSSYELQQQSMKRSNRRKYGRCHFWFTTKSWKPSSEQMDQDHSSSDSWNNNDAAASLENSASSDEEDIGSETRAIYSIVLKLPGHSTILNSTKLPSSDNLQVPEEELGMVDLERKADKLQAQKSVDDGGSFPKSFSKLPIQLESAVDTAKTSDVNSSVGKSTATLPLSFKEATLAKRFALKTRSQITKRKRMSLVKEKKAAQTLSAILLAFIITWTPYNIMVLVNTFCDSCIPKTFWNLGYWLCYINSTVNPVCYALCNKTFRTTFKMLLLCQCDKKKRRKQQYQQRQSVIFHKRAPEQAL

EC50 [1] [nM] | Emax [1] [%] | EC50 [2] [nM] | Emax [2] [%] | EC50 [3] [nM] | Emax [3] [%] | Emax [4] [%] | EC50 [4] [nM] | SMILES
631 | 51 | 100 | 59 | > 20000 | 10 | 13 | > 20000 | CCOC(=O)N1CCC2(CC(N3CCC(N4CCCC(F)(F)C4)CC3)C2)C1 (single isomer, unassigned) [4-13 Isomer 2, ethyl 2-(3,3-difluoro-1,4′-bipiperidin-1′-yl)-6-azaspiro[3.4]octane-6-carboxylate]
79.4 | 102 | 15.8 | 111 | > 20000 | 8 | 8 | > 20000 | CCOC(=O)N1CCC2(CC(N3CCC(N4CCC[C@@H]4C(F)(F)F)CC3)C2)C1 (single isomer, unassigned) [2-104 Isomer 2]
158 | 89 | 6.31 | 113 | > 20000 | 3 | 5 | > 20000 | CCOC(=O)N1CCC2(CC(N3CCC([C@@H]4CCCN4C(=O)NC4(C)COC4)CC3)C2)C1 (single isomer, unassigned) [2-36 Isomer 2]
> 20000 | 237 | 63.1 | 53 | > 20000 | 1 | 3 | > 20000 | CCOC(=O)N1CCC2(CC(N3CCC([C@@H]4CCCN4C(=O)OCCN(C)C)CC3)C2)C1 (single isomer, unassigned) [2-51 Isomer 2]
1000 | 66 | 31.6 | 156 | > 20000 | 45 | 9 | > 20000 | CCOC(=O)N1CCC2(CC(N3CCC([C@@H]4CCCN4C(=S)CC)CC3)C2)C1 (single isomer, unassigned) [2-58 Isomer 2]
> 20000 | 74 | 39.8 | 58 | > 20000 | 0 | 4 | > 20000 | CCOC(=O)N1CCC2(CC(N3CCC(c4cnc(OC)cc4C)CC3)C2)C1 (single isomer, unassigned) [3-6 Isomer 2, ethyl 2-[4-(6-methoxy-4-methylpyridin-3-yl)piperidin-1-yl]-6-azaspiro[3.4]octane-6-carboxylate]
631 | 46 | 7.94 | 113 | > 20000 | 4 | 2 | > 20000 | CCOC(=O)N1CCC2(CC(N3CCC([C@@H]4CCCN4C(=O)N(C)C)CC3)C2)C1 (single isomer, unassigned) [2-21 Isomer 2]
12.6 | 92 | 6.31 | 99 | > 20000 | 66 | 4 | > 20000 | CCOC(=O)N1CCC2(CC(N3CCC([C@@H]4CCCN4C(=O)NCC(F)(F)F)CC3)C2)C1 (single isomer, unassigned) [2-26 Isomer 2]
2510 | 41 | 15.8 | 76 | > 20000 | 1 | 1 | > 20000 | CCOC(=O)N1CCC2(CC(N3CCC([C@@H]4CCCN4C(=O)N4CC(F)(F)C4)CC3)C2)C1 (single isomer, unassigned) [2-39 Isomer 2]
251 | 34 | 63.1 | 60 | > 20000 | 0 | 4 | > 20000 | CCOC(=O)N1CCC2(CC(N3CCC([C@@H]4CCCN4C(=O)N(C)Cc4ccccn4)CC3)C2)C1 (single isomer, unassigned) [2-63 Isomer 2]
> 20000 | 11 | 126 | 49 | 12600 | 27 | 5 | > 20000 | COC(=O)N1CCC2(CC(N3CCC([C@@H]4CCCN4c4ccccn4)CC3)C2)C1 (single isomer, unassigned) [2-78 Isomer 2]
